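Each compound was tested at five concentrations against cells in 96-well plates for 48 hours. GI50 marks 50% less growth.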 Calls of active or inactive are those of the source. Rule as the data show it: active = GI50 up to about 1.1 µM and inactive = higher.
What was measured:
Test in all cases: NCI-60 cell line screen, 48 h
786-0 = tested on: 786-0
A498 = tested on: A498
A549 = tested on: A549
ACHN = tested on: ACHN
BT-549 = tested on: BT-549
CAKI-1 = tested on: CAKI-1
CCRF-CEM = tested on: CCRF-CEM
COLO 205 = tested on: COLO 205
DU-145 = tested on: DU-145
EKVX = tested on: EKVX
HCC 2998 = tested on: HCC 2998
HCT-116 = tested on: HCT-116
HCT-15 = tested on: HCT-15
HL-60 = tested on: HL-60
HOP-62 = tested on: HOP-62
HOP-92 = tested on: HOP-92
HT-29 = tested on: HT-29
Hs-578T = tested on: Hs-578T
IGROV-1 = tested on: IGROV-1
K562 = tested on: K562
KM12 = tested on: KM12
LOX IMVI = tested on: LOX IMVI
MCF7 = tested on: MCF7
MDA-MB-231 = tested on: MDA-MB-231
MDA-MB-435 = tested on: MDA-MB-435
MOLT-4 = tested on: MOLT-4
Malme-3M = tested on: Malme-3M
NCI-H226 = tested on: NCI-H226
NCI-H23 = tested on: NCI-H23
NCI-H460 = tested on: NCI-H460
NCI-H522 = tested on: NCI-H522
NCI/ADR-RES = tested on: NCI/ADR-RES
OVCAR-3 = tested on: OVCAR-3
OVCAR-4 = tested on: OVCAR-4
OVCAR-5 = tested on: OVCAR-5
OVCAR-8 = tested on: OVCAR-8
PC-3 = tested on: PC-3
RPMI-8226 = tested on: RPMI-8226
SF-268 = tested on: SF-268
SF-295 = tested on: SF-295
SF-539 = tested on: SF-539
SK-MEL-28 = tested on: SK-MEL-28
SK-MEL-2 = tested on: SK-MEL-2
SK-MEL-5 = tested on: SK-MEL-5
SK-OV-3 = tested on: SK-OV-3
SN12C = tested on: SN12C
SNB-19 = tested on: SNB-19
SNB-75 = tested on: SNB-75
SR = tested on: SR
SW-620 = tested on: SW-620
T47D = tested on: T47D
TK-10 = tested on: TK-10
U-251 = tested on: U-251
UACC-257 = tested on: UACC-257
UACC-62 = tested on: UACC-62
UO-31 = tested on: UO-31
M14 = tested on: M14
RXF 393 = tested on: RXF 393
MDA-N = tested on: MDA-N

Measured: GI50

O=C(NC1CCCCC1NC(c1ccccc1)(c1ccccc1)c1ccccc1)C(=O)NC1CCCCC1NC(c1ccccc1)(c1ccccc1)c1ccccc1 (stereo not drawn)
> 100 µM: HCT-15
inactive: 786-0 53.7 µM | A498 28.9 µM | A549 > 100 µM | ACHN 92 µM | BT-549 28.1 µM | CAKI-1 > 100 µM | CCRF-CEM > 100 µM | COLO 205 > 100 µM | DU-145 > 100 µM | EKVX 67.3 µM | HCC 2998 > 100 µM | HCT-116 > 100 µM | HL-60 > 100 µM | HOP-62 27.5 µM | HOP-92 10.5 µM | HT-29 > 100 µM | Hs-578T 13.6 µM | IGROV-1 69.2 µM | K562 > 100 µM | KM12 > 100 µM | LOX IMVI > 100 µM | MCF7 > 100 µM | MDA-MB-231 > 100 µM | MDA-MB-435 > 100 µM | MOLT-4 > 100 µM | Malme-3M > 100 µM | NCI-H226 59.3 µM | NCI-H23 > 100 µM | NCI-H460 > 100 µM | NCI-H522 89.9 µM | NCI/ADR-RES 81.5 µM | OVCAR-3 > 100 µM | OVCAR-4 22.6 µM | OVCAR-5 > 100 µM | OVCAR-8 > 100 µM | PC-3 > 100 µM | RPMI-8226 > 100 µM | SF-268 24 µM | SF-295 > 100 µM | SF-539 51.2 µM | SK-MEL-28 > 100 µM | SK-MEL-2 > 100 µM | SK-MEL-5 > 100 µM | SK-OV-3 28.6 µM | SN12C > 100 µM | SNB-19 > 100 µM | SNB-75 1.63 µM | SR > 100 µM | SW-620 > 100 µM | T47D 60.4 µM | TK-10 > 100 µM | U-251 21 µM | UACC-257 > 100 µM | UACC-62 > 10 µM | UO-31 43.6 µM

O=C(CC(=O)N1N=C(N(c2ccccc2)c2ccccc2)CC1c1ccccc1)Nc1ccccc1 (stereo not drawn)
inactive: 786-0 81.7 µM | A549 > 100 µM | ACHN > 100 µM | BT-549 > 100 µM | CAKI-1 > 100 µM | CCRF-CEM > 100 µM | COLO 205 > 100 µM | DU-145 > 100 µM | EKVX > 100 µM | HCC 2998 > 100 µM | HCT-116 > 100 µM | HL-60 > 100 µM | HOP-62 48.5 µM | HOP-92 > 100 µM | HT-29 > 100 µM | Hs-578T 42.5 µM | IGROV-1 > 100 µM | K562 > 100 µM | KM12 > 100 µM | M14 > 100 µM | MCF7 > 100 µM | MDA-MB-231 7.82 µM | MDA-MB-435 > 100 µM | MOLT-4 7.31 µM | NCI-H226 > 100 µM | NCI-H23 > 100 µM | NCI-H460 > 100 µM | NCI-H522 64.1 µM | NCI/ADR-RES > 100 µM | OVCAR-3 > 100 µM | OVCAR-4 > 100 µM | OVCAR-5 > 100 µM | OVCAR-8 > 100 µM | PC-3 > 100 µM | RPMI-8226 > 100 µM | RXF 393 49.8 µM | SF-268 40.8 µM | SF-295 66.7 µM | SF-539 > 100 µM | SK-MEL-28 > 100 µM | SK-MEL-2 > 100 µM | SK-MEL-5 > 100 µM | SK-OV-3 80.9 µM | SNB-19 78 µM | SNB-75 61.4 µM | SR 37.7 µM | SW-620 > 100 µM | T47D > 100 µM | TK-10 > 100 µM | U-251 56.6 µM | UACC-257 > 100 µM | UACC-62 34.4 µM | UO-31 > 100 µM
> 100 µM: HCT-15

O=Cc1cn(CCCCCn2cc(C=O)c3ccccc32)c2ccccc12
inactive: 786-0 71.4 µM | A498 5.71 µM | A549 > 100 µM | ACHN > 100 µM | BT-549 > 100 µM | CAKI-1 > 100 µM | CCRF-CEM > 100 µM | COLO 205 > 100 µM | DU-145 > 100 µM | EKVX > 100 µM | HCT-116 > 100 µM | HL-60 > 100 µM | HOP-92 > 100 µM | HT-29 > 100 µM | Hs-578T 25 µM | IGROV-1 > 100 µM | K562 > 10 µM | LOX IMVI 41.5 µM | M14 > 100 µM | MDA-MB-231 54.6 µM | MDA-MB-435 > 100 µM | MDA-N > 100 µM | MOLT-4 > 100 µM | Malme-3M > 100 µM | NCI-H23 > 100 µM | NCI-H522 8.18 µM | NCI/ADR-RES > 100 µM | OVCAR-3 > 100 µM | OVCAR-5 1.68 µM | OVCAR-8 > 100 µM | PC-3 > 100 µM | RPMI-8226 > 100 µM | RXF 393 6.55 µM | SF-268 16.7 µM | SF-295 10.4 µM | SF-539 > 100 µM | SK-MEL-2 > 100 µM | SK-MEL-5 > 100 µM | SK-OV-3 > 100 µM | SN12C > 100 µM | SNB-19 > 100 µM | SR > 100 µM | SW-620 > 100 µM | TK-10 > 100 µM | U-251 67.9 µM | UACC-257 > 100 µM | UACC-62 > 100 µM | UO-31 > 100 µM
active: NCI-H226 0.262 µM | NCI-H460 0.124 µM
> 100 µM: HCT-15

COC(=O)C(Cc1cn(C(C)n2cc(CC(NC(C)=O)C(=O)OC)c3ccccc32)c2ccccc12)NC(C)=O (stereo not drawn)
inactive: A498 > 100 µM | A549 > 100 µM | BT-549 > 100 µM | CAKI-1 > 100 µM | CCRF-CEM 42.5 µM | COLO 205 > 100 µM | DU-145 > 100 µM | EKVX 25.5 µM | HCC 2998 > 100 µM | HCT-116 > 100 µM | HOP-62 > 100 µM | HOP-92 52.5 µM | HT-29 > 100 µM | Hs-578T 12.5 µM | IGROV-1 12.9 µM | KM12 32.1 µM | M14 > 100 µM | MDA-MB-231 44.5 µM | MDA-MB-435 > 100 µM | MDA-N > 100 µM | MOLT-4 34 µM | Malme-3M 13.7 µM | NCI-H23 > 100 µM | NCI-H460 63.2 µM | NCI-H522 12.2 µM | OVCAR-3 > 100 µM | OVCAR-4 > 100 µM | OVCAR-5 > 100 µM | PC-3 > 100 µM | RPMI-8226 83.9 µM | SF-268 48.1 µM | SF-295 60.7 µM | SK-MEL-28 > 100 µM | SK-MEL-2 > 100 µM | SK-MEL-5 73.3 µM | SK-OV-3 > 100 µM | SN12C > 100 µM | SNB-19 > 100 µM | SR 37.6 µM | SW-620 > 100 µM | TK-10 > 100 µM | U-251 > 100 µM | UACC-257 > 100 µM | UACC-62 98.2 µM | UO-31 66.4 µM
> 100 µM: HCT-15
active: SNB-75 0.116 µM

From ChEMBL document CHEMBL1201862, “PubChem BioAssay data set” (2004)
